Test results: paper PMC8330742, “New benzothieno[2,3-c]pyridines as non-steroidal CYP17 inhibitors: design, synthesis, anticancer screening, apoptosis induction, and in silico ADME profile studies” (Journal of Enzyme Inhibition and Medicinal Chemistry, 2021)

What was measured:
CCRF-CEM = test: NCI-60 SRB screen; format: cell-based; conditions: Homo sapiens, single dose 10^−5 M, Leukaemia, read-out: Growth inhibition (%)
HL-60(TB) = test: NCI-60 SRB screen; format: cell-based, human; conditions: Homo sapiens; single dose 10^−5 M; HL-60(TB), Leukaemia; read-out: Growth inhibition (%)
K-562 = test: NCI-60 SRB screen; format: cell-based, human; conditions: Homo sapiens, K562; single dose 10^−5 M; K-562, Leukaemia; read-out: Growth inhibition (%)
MOLT-4 = test: NCI-60 SRB screen; format: cell-based; conditions: Homo sapiens; single dose 10^−5 M; MOLT-4, Leukaemia; read-out: Growth inhibition (%)
SR = test: NCI-60 SRB screen; format: cell-based; conditions: Homo sapiens, single dose 10^−5 M, Leukaemia, read-out: Growth inhibition (%)
A549/ATCC = test: NCI-60 SRB screen; format: cell-based, human; conditions: Homo sapiens, single dose 10^−5 M, Non-small cell lung carcinoma, read-out: Growth inhibition (%)
EKVX = test: NCI-60 SRB screen; format: cell-based, human; conditions: Homo sapiens, single dose 10^−5 M, Non-small cell lung carcinoma, read-out: Growth inhibition (%)
HOP-62 = test: NCI-60 SRB screen; format: cell-based, human; conditions: Homo sapiens; single dose 10^−5 M; HOP-62, Non-small cell lung carcinoma; read-out: Growth inhibition (%)
NCI-H226 = test: NCI-60 SRB screen; format: cell-based, human; conditions: Homo sapiens; single dose 10^−5 M; NCI-H226, Non-small cell lung carcinoma; read-out: Growth inhibition (%)
NCI-H23 = test: NCI-60 SRB screen; format: cell-based, human; conditions: Homo sapiens; single dose 10^−5 M; NCI-H23, Non-small cell lung carcinoma; read-out: Growth inhibition (%)
NCI-H322M = test: NCI-60 SRB screen; format: cell-based, human; conditions: Homo sapiens, single dose 10^−5 M, Non-small cell lung carcinoma, read-out: Growth inhibition (%)
NCI-H460 = test: NCI-60 SRB screen; format: cell-based, human; conditions: Homo sapiens; single dose 10^−5 M; NCI-H460, Non-small cell lung carcinoma; read-out: Growth inhibition (%)
NCI-H522 = test: NCI-60 SRB screen; format: cell-based, human; conditions: Homo sapiens; single dose 10^−5 M; NCI-H522, Non-small cell lung carcinoma; read-out: Growth inhibition (%)
COLO 205 = test: NCI-60 SRB screen; format: cell-based, human; conditions: Homo sapiens; single dose 10^−5 M; COLO 205, Colon cancer; read-out: Growth inhibition (%)
HCC-2998 = test: NCI-60 SRB screen; format: cell-based, human; conditions: Homo sapiens; single dose 10^−5 M; HCC-2998, Colon cancer; read-out: Growth inhibition (%)
HCT-116 = test: NCI-60 SRB screen; format: cell-based, human; conditions: Homo sapiens; single dose 10^−5 M; HCT-116, Colon cancer; read-out: Growth inhibition (%)
HCT-15 = test: NCI-60 SRB screen; format: cell-based, human; conditions: Homo sapiens; single dose 10^−5 M; HCT-15, Colon cancer; read-out: Growth inhibition (%)
HT-29 = test: NCI-60 SRB screen; format: cell-based; conditions: Homo sapiens; single dose 10^−5 M; HT-29, Colon cancer; read-out: Growth inhibition (%)
KM12 = test: NCI-60 SRB screen; format: cell-based, human; conditions: Homo sapiens; single dose 10^−5 M; KM12, Colon cancer; read-out: Growth inhibition (%)
SW-620 = test: NCI-60 SRB screen; format: cell-based; conditions: Homo sapiens; single dose 10^−5 M; SW-620, Colon cancer; read-out: Growth inhibition (%)
SF-268 = test: NCI-60 SRB screen; format: cell-based, human; conditions: Homo sapiens; single dose 10^−5 M; SF-268, CNS cancer; read-out: Growth inhibition (%)
SF-295 = test: NCI-60 SRB screen; format: cell-based, human; conditions: Homo sapiens; single dose 10^−5 M; SF-295, CNS cancer; read-out: Growth inhibition (%)
LOX IMVI = test: NCI-60 SRB screen; format: cell-based, human; conditions: Homo sapiens, single dose 10^−5 M, Melanoma, read-out: Growth inhibition (%)
MALME-3M = test: NCI-60 SRB screen; format: cell-based, human; conditions: Homo sapiens, single dose 10^−5 M, Melanoma, read-out: Growth inhibition (%)
M14 = test: NCI-60 SRB screen; format: cell-based, human; conditions: Homo sapiens; single dose 10^−5 M; M14, Melanoma; read-out: Growth inhibition (%)
MDA-MB-435 = test: NCI-60 SRB screen; format: cell-based; conditions: Homo sapiens, MDA-MB-435, read-out: Growth inhibition (%)
SK-MEL-2 = test: NCI-60 SRB screen; format: cell-based, human; conditions: Homo sapiens; single dose 10^−5 M; SK-MEL-2, Melanoma; read-out: Growth inhibition (%)
SK-MEL-28 = test: NCI-60 SRB screen; format: cell-based; conditions: Homo sapiens; single dose 10^−5 M; SK-MEL-28, Melanoma; read-out: Growth inhibition (%)
SK-MEL-5 = test: NCI-60 SRB screen; format: cell-based, human; conditions: Homo sapiens; single dose 10^−5 M; SK-MEL-5, Melanoma; read-out: Growth inhibition (%)
UACC-257 = test: NCI-60 SRB screen; format: cell-based, human; conditions: Homo sapiens; single dose 10^−5 M; UACC-257, Melanoma; read-out: Growth inhibition (%)
UACC-62 = test: NCI-60 SRB screen; format: cell-based, human; conditions: Homo sapiens; single dose 10^−5 M; UACC-62, Melanoma; read-out: Growth inhibition (%)
IGROV1 = test: NCI-60 SRB screen; format: cell-based, human; conditions: Homo sapiens, IGROV-1; single dose 10^−5 M; IGROV1, Ovarian cancer; read-out: Growth inhibition (%)
OVCAR-3 = test: NCI-60 SRB screen; format: cell-based, human; conditions: Homo sapiens; single dose 10^−5 M; OVCAR-3, Ovarian cancer; read-out: Growth inhibition (%)
OVCAR-4 = test: NCI-60 SRB screen; format: cell-based, human; conditions: Homo sapiens; single dose 10^−5 M; OVCAR-4, Ovarian cancer; read-out: Growth inhibition (%)
OVCAR-8 = test: NCI-60 SRB screen; format: cell-based, human; conditions: Homo sapiens; single dose 10^−5 M; OVCAR-8, Ovarian cancer; read-out: Growth inhibition (%)
NCI/ADR-RES = test: NCI-60 SRB screen; format: cell-based, human; conditions: Homo sapiens, single dose 10^−5 M, Ovarian cancer, read-out: Growth inhibition (%)
SK-OV-3 = test: NCI-60 SRB screen; format: cell-based, human; conditions: Homo sapiens; single dose 10^−5 M; SK-OV-3, Ovarian cancer; read-out: Growth inhibition (%)
786-0 = test: NCI-60 SRB screen; format: cell-based; conditions: Homo sapiens; single dose 10^−5 M; 786-0, Renal cancer; read-out: Growth inhibition (%)
ACHN = test: NCI-60 SRB screen; format: cell-based; conditions: Homo sapiens, single dose 10^−5 M, Renal cancer, read-out: Growth inhibition (%)
RXF 393 = test: NCI-60 SRB screen; format: cell-based, human; conditions: Homo sapiens; single dose 10^−5 M; RXF 393, Renal cancer; read-out: Growth inhibition (%)
SN12C = test: NCI-60 SRB screen; format: cell-based, human; conditions: Homo sapiens, SN12C; single dose 10^−5 M; SN 12 C, Renal cancer; read-out: Growth inhibition (%)
TK-10 = test: NCI-60 SRB screen; format: cell-based, human; conditions: Homo sapiens; single dose 10^−5 M; TK-10, Renal cancer; read-out: Growth inhibition (%)
UO-31 = test: NCI-60 SRB screen; format: cell-based, human; conditions: Homo sapiens; single dose 10^−5 M; UO-31, Renal cancer; read-out: Growth inhibition (%)
[1] = test system: panel of 60 cancer cell lines; test: NCI-60 SRB screen, mean or range over the panel; format: cell-based, human; conditions: Homo sapiens; mean over the cell lines; single dose 10^−5 M; read-out: Mean growth inhibition (%)

O=[N+]([O-])c1cccc(C2NC(N3CCCCC3)=C(Cl)c3c2sc2c(F)cccc32)c1 (stereo not shown) [Compound 8c, 4-Chloro-3-(piperidin-1-yl)-8-fluoro-1-(3-nitrophenyl)-1,2-dihydro [1]benzothieno[2,3-c]pyridine]
inhibition at 10 µM (CCRF-CEM): 30.3%
inhibition at 10 µM (HL-60(TB)): 18.7%
inhibition at 10 µM (K-562): 14.1%
inhibition at 10 µM (MOLT-4): 35.6%
inhibition at 10 µM (SR): 10.1%
inhibition at 10 µM (A549/ATCC): 5.05%
inhibition at 10 µM (EKVX): 19.1%
inhibition at 10 µM (HOP-62): 5.22%
inhibition at 10 µM (NCI-H226): 28.2%
inhibition at 10 µM (NCI-H23): 3.42%
inhibition at 10 µM (NCI-H322M): -0.59%
inhibition at 10 µM (NCI-H460): 3%
inhibition at 10 µM (NCI-H522): 17.7%
inhibition at 10 µM (COLO 205): -12.7%
inhibition at 10 µM (HCC-2998): -6.85%
inhibition at 10 µM (HCT-116): 1.95%
inhibition at 10 µM (HCT-15): 3.84%
inhibition at 10 µM (HT-29): -2.62%
inhibition at 10 µM (KM12): 3.41%
inhibition at 10 µM (SW-620): 1.71%
inhibition at 10 µM (SF-268): 6.19%
inhibition at 10 µM (SF-295): -6.6%
inhibition at 10 µM (LOX IMVI): -0.7%
inhibition at 10 µM (MALME-3M): 4.61%
inhibition at 10 µM (M14): 1.39%
inhibition at 10 µM (MDA-MB-435): 2%
inhibition at 10 µM (SK-MEL-2): 2.66%
inhibition at 10 µM (SK-MEL-28): -16.7%
inhibition at 10 µM (SK-MEL-5): 0.27%
inhibition at 10 µM (UACC-257): -10.3%
inhibition at 10 µM (UACC-62): 8.57%
inhibition at 10 µM (IGROV1): 17.4%
inhibition at 10 µM (OVCAR-3): -1.68%
inhibition at 10 µM (OVCAR-4): 12.3%
inhibition at 10 µM (OVCAR-8): -6.18%
inhibition at 10 µM (NCI/ADR-RES): -2.62%
inhibition at 10 µM (SK-OV-3): 9.9%
inhibition at 10 µM (786-0): -0.24%
inhibition at 10 µM (ACHN): 6.2%
inhibition at 10 µM (RXF 393): -15.6%
inhibition at 10 µM (SN12C): 3.66%
inhibition at 10 µM (TK-10): -22.4%
inhibition at 10 µM (UO-31): 38%
inhibition at 10 µM [1]: 7.22%

CCN1CCN(C2=C(C#N)c3c(sc4c(F)cccc34)C(c3cccc([N+](=O)[O-])c3)N2)CC1 (stereo not shown) [Compound 8d, 4-Cyano-3-(4-ethylpiperazin-1-yl)-8-fluoro-1-(3-nitrophenyl)-1,2-dihydro [1]benzothieno[2,3-c]pyridine]
inhibition at 10 µM (CCRF-CEM): -0.37%
inhibition at 10 µM (HL-60(TB)): -15.6%
inhibition at 10 µM (K-562): 4.11%
inhibition at 10 µM (MOLT-4): 8.62%
inhibition at 10 µM (SR): 11.8%
inhibition at 10 µM (A549/ATCC): -2.72%
inhibition at 10 µM (EKVX): 12.5%
inhibition at 10 µM (HOP-62): 16.1%
inhibition at 10 µM (NCI-H226): 15.7%
inhibition at 10 µM (NCI-H23): 3.9%
inhibition at 10 µM (NCI-H322M): 1.85%
inhibition at 10 µM (NCI-H460): -1.12%
inhibition at 10 µM (NCI-H522): 4.68%
inhibition at 10 µM (COLO 205): -5.97%
inhibition at 10 µM (HCC-2998): -12.2%
inhibition at 10 µM (HCT-116): 1.31%
inhibition at 10 µM (HCT-15): -6.34%
inhibition at 10 µM (HT-29): -4.51%
inhibition at 10 µM (KM12): -0.49%
inhibition at 10 µM (SW-620): 3.43%
inhibition at 10 µM (SF-268): 4.87%
inhibition at 10 µM (SF-295): -1.19%
inhibition at 10 µM (LOX IMVI): 4.73%
inhibition at 10 µM (MALME-3M): -7.54%
inhibition at 10 µM (M14): 4.65%
inhibition at 10 µM (MDA-MB-435): -7.84%
inhibition at 10 µM (SK-MEL-2): 1.77%
inhibition at 10 µM (SK-MEL-28): -15.8%
inhibition at 10 µM (SK-MEL-5): -10.7%
inhibition at 10 µM (UACC-257): -23.7%
inhibition at 10 µM (UACC-62): 6.81%
inhibition at 10 µM (IGROV1): 23.7%
inhibition at 10 µM (OVCAR-3): -2.65%
inhibition at 10 µM (OVCAR-4): -0.52%
inhibition at 10 µM (OVCAR-8): -1.56%
inhibition at 10 µM (NCI/ADR-RES): -4.88%
inhibition at 10 µM (SK-OV-3): 11.5%
inhibition at 10 µM (786-0): -9.68%
inhibition at 10 µM (ACHN): 9.28%
inhibition at 10 µM (RXF 393): -3.67%
inhibition at 10 µM (SN12C): 1.95%
inhibition at 10 µM (TK-10): -37%
inhibition at 10 µM (UO-31): 33.5%
inhibition at 10 µM [1]: 1.33%
